Reference: ChEMBL document CHEMBL4229341, “3-Hydroxy-1,5-dihydro-2H-pyrrol-2-ones as novel antibacterial scaffolds against methicillin-resistant Staphylococcus aureus” (2018)
Values after ≈ are worked out from the molar mass of the structure shown.

Key:
Assay type in all cases: functional
Staphylococcus aureus [1] = test: Antibacterial activity against methicillin resistant Staphylococcus aureus ATCC 33591 after 16 to 20 hrs by CLSI method
Staphylococcus aureus [2] = test: Antibacterial activity against methicillin resistant Staphylococcus aureus NR 45913 after 16 to 20 hrs by CLSI method
Staphylococcus aureus [3] = test: Antibacterial activity against methicillin resistant Staphylococcus aureus BAA-1685 after 16 to 20 hrs by CLSI method
Staphylococcus aureus [4] = test: Antibacterial activity against methicillin resistant Staphylococcus aureus BAA-44 after 16 to 20 hrs by CLSI method
[5] = test system: Staphylococcus epidermidis; test: Antibacterial activity against methicillin resistant Staphylococcus epidermidis NR 46386 after 16 to 20 hrs by CLSI method
Staphylococcus aureus [6] = test: Antibacterial activity against linezolid/methicillin resistant Staphylococcus aureus NR 45924 after 16 to 20 hrs by CLSI method
Staphylococcus aureus [7] = test: Antibacterial activity against methicillin resistant Staphylococcus aureus ATCC 43300 after 16 to 20 hrs by CLSI method
[8] = test system: Staphylococcus epidermidis; test: Antibacterial activity against methicillin resistant Staphylococcus epidermidis ATCC 51625 after 16 to 20 hrs by CLSI method
Staphylococcus aureus [9] = test: Antibacterial activity against methicillin resistant Staphylococcus aureus NR 45898 after 16 to 20 hrs by CLSI method
Staphylococcus aureus [10] = test: Antibacterial activity against methicillin resistant Staphylococcus aureus NR 45906 after 16 to 20 hrs by CLSI method
Staphylococcus aureus [11] = test: Antibacterial activity against linezolid/methicillin resistant Staphylococcus aureus NR 45926 after 16 to 20 hrs by CLSI method
Bacillus cereus = test: Antibacterial activity against Bacillus cereus

C=CCN1C(=O)C(O)=C(c2ccc(C(F)(F)F)cc2)C1CC (racemic) showed an MIC (Staphylococcus aureus [1]) of 32 µg/mL (≈ 103 µM).

O=C1C(O)=C(c2ccc(Br)cc2)C2CCCCN12 (stereo not drawn) showed an MIC (Staphylococcus aureus [1]) of 32 µg/mL (≈ 104 µM).

O=C1C(O)=C(c2ccccc2[N+](=O)[O-])C2CCCN12 (stereo not drawn) was tested, and the MIC (Staphylococcus aureus [1]) was > 128 µg/mL.

For C=CCC1=C(O)C(=O)N2CCCC12 (stereo not drawn), the MIC (Staphylococcus aureus [1]) was > 128 µg/mL.

CCC1C(c2ccc(C(F)(F)F)cc2)=C(O)C(=O)N1C (racemic) was tested, and the MIC (Staphylococcus aureus [1]) was 64 µg/mL (≈ 224 µM).

CCC1C(c2ccc(C(F)(F)F)cc2)=C(O)C(=O)N1Cc1ccc(OC)cc1OC (racemic) gave an MIC (Staphylococcus aureus [1]) of 32 µg/mL (≈ 75.9 µM).

For O=C1C(O)=C(c2ccc(F)cc2)C2CCCCN12 (racemic), the MIC (Staphylococcus aureus [1]) was > 128 µg/mL.

With C#CCN1C(=O)C(O)=C(c2ccc(C(F)(F)F)cc2)C1CC (racemic) the MIC (Staphylococcus aureus [1]) was 32 µg/mL (≈ 103 µM).

For CCC1C(c2ccc(C(F)(F)F)cc2)=C(O)C(=O)N1c1ccccc1 (racemic), the MIC (Staphylococcus aureus [2]) was 8 µg/mL (≈ 23 µM), the MIC (Staphylococcus aureus [3]) was 32 µg/mL (≈ 92.1 µM) and the MIC (Staphylococcus aureus [4]) was 32 µg/mL (≈ 92.1 µM). The MIC [5] was 4 µg/mL (≈ 11.5 µM), the MIC (Staphylococcus aureus [6]) was 16 µg/mL (≈ 46.1 µM) and the MIC (Staphylococcus aureus [7]) was 64 µg/mL (≈ 184 µM). The MIC [8] was 8 µg/mL (≈ 23 µM), the MIC (Staphylococcus aureus [9]) was 8 µg/mL (≈ 23 µM) and the MIC (Staphylococcus aureus [10]) was 8 µg/mL (≈ 23 µM). For the same molecule, the MIC (Staphylococcus aureus [11]) was 8 µg/mL (≈ 23 µM) and the MIC (Staphylococcus aureus [1]) was 8 µg/mL (≈ 23 µM).

CC(=O)NC[C@H]1CN(c2ccc(N3CCOCC3)c(F)c2)C(=O)O1 [LINEZOLID] was tested, and the MIC (Staphylococcus aureus [2]) was 0.5 µg/mL (≈ 1.48 µM), the MIC (Staphylococcus aureus [3]) was 1 µg/mL (≈ 2.96 µM) and the MIC (Staphylococcus aureus [4]) was 1 µg/mL (≈ 2.96 µM). The MIC [5] was 0.25 µg/mL (≈ 0.741 µM), the MIC (Staphylococcus aureus [7]) was 1 µg/mL (≈ 2.96 µM) and the MIC [8] was 0.25 µg/mL (≈ 0.741 µM). The MIC (Staphylococcus aureus [9]) was 0.5 µg/mL (≈ 1.48 µM) and the MIC (Staphylococcus aureus [1]) was 1 µg/mL (≈ 2.96 µM).

For CCC1C(c2ccc(C(F)(F)F)cc2)=C(O)C(=O)N1CCCCO (racemic), the MIC (Staphylococcus aureus [1]) was > 128 µg/mL.

Work on O=C1C(O)=C(c2ccc(C(F)(F)F)cc2)C2CCCCN12 (stereo not drawn) yielded an MIC (Staphylococcus aureus [1]) of 32 µg/mL (≈ 108 µM).

With O=C1C(O)=C(c2ccc(C(F)(F)F)cc2)C2CCCN12 (stereo not drawn) the MIC (Staphylococcus aureus [1]) was 128 µg/mL (≈ 452 µM).

For COc1ccc(C2=C(O)C(=O)N3CCCCC23)cc1 (stereo not drawn), the MIC (Staphylococcus aureus [1]) was > 128 µg/mL.

In the case of CCC1NC(=O)C(O)=C1c1ccc(C(F)(F)F)cc1 (racemic), the MIC (Staphylococcus aureus [1]) is reported as 128 µg/mL (≈ 472 µM).

In the case of CCCCCCN1C(=O)C(O)=C(c2ccc(C(F)(F)F)cc2)C1CCCC (racemic), the MIC (Staphylococcus aureus [1]) is reported as 32 µg/mL (≈ 83.5 µM).

For CCCCCC1=C(O)C(=O)N2CCCC12 (stereo not drawn), the MIC (Staphylococcus aureus [1]) was > 128 µg/mL.

CCCCCCN1C(=O)C(O)=C(c2ccc(C(F)(F)F)cc2)C1CC (racemic) showed an MIC (Staphylococcus aureus [2]) of 32 µg/mL (≈ 90 µM), an MIC (Staphylococcus aureus [3]) of 64 µg/mL (≈ 180 µM) and an MIC (Staphylococcus aureus [4]) of 64 µg/mL (≈ 180 µM). For the same molecule, the MIC [5] was 8 µg/mL (≈ 22.5 µM), the MIC (Staphylococcus aureus [6]) was 64 µg/mL (≈ 180 µM) and the MIC (Staphylococcus aureus [7]) was 64 µg/mL (≈ 180 µM). For the same molecule, the MIC [8] was 4 µg/mL (≈ 11.3 µM), the MIC (Staphylococcus aureus [9]) was 32 µg/mL (≈ 90 µM) and the MIC (Staphylococcus aureus [10]) was 4 µg/mL (≈ 11.3 µM). It also gave an MIC (Staphylococcus aureus [11]) of 32 µg/mL (≈ 90 µM) and an MIC (Staphylococcus aureus [1]) of 2 µg/mL (≈ 5.63 µM).

Work on CCC1C(c2ccc(C(F)(F)F)cc2)=C(O)C(=O)N1C(C)c1ccccc1 (stereo not drawn) yielded an MIC (Staphylococcus aureus [1]) of 32 µg/mL (≈ 85.2 µM).

For CCC1C(c2ccc(C(F)(F)F)cc2)=C(O)C(=O)N1Cc1ccc(-c2ccccc2)cc1 (racemic), the MIC (Staphylococcus aureus [1]) was 64 µg/mL (≈ 146 µM).

Work on O=C1C(O)=C(c2ccc(Br)cc2)C2CCCN12 (stereo not drawn) yielded an MIC (Staphylococcus aureus [1]) of 128 µg/mL (≈ 435 µM).

In the case of CCC1C(c2ccc(C(F)(F)F)cc2)=C(O)C(=O)N1CC(C)C (racemic), the MIC (Staphylococcus aureus [1]) is reported as 16 µg/mL (≈ 48.9 µM).

In the case of CCCCCCN1C(=O)C(O)=C(c2ccc(C(F)(F)F)cc2)C1c1ccccc1 (racemic), the MIC (Staphylococcus aureus [1]) is reported as 32 µg/mL (≈ 79.3 µM).

Molecule CC[C@H]1OC(=O)[C@H](C)[C@@H](O[C@H]2C[C@@](C)(OC)[C@@H](O)[C@H](C)O2)[C@H](C)[C@@H](O[C@@H]2O[C@H](C)C[C@H](N(C)C)[C@H]2O)[C@](C)(O)C[C@@H](C)C(=O)[C@H](C)[C@@H](O)[C@]1(C)O [ERYTHROMYCIN] has an MIC (Staphylococcus aureus [6]) of 0.5 µg/mL (≈ 0.681 µM) and an MIC (Staphylococcus aureus [11]) of 0.5 µg/mL (≈ 0.681 µM).

With CCC1C(c2ccc(C(F)(F)F)cc2)=C(O)C(=O)N1Cc1ccccc1 (racemic) the MIC (Staphylococcus aureus [2]) was 16 µg/mL (≈ 44.3 µM), the MIC (Staphylococcus aureus [3]) was 32 µg/mL (≈ 88.6 µM) and the MIC (Staphylococcus aureus [4]) was 64 µg/mL (≈ 177 µM). It also gave an MIC [5] of 8 µg/mL (≈ 22.1 µM), an MIC (Staphylococcus aureus [6]) of 32 µg/mL (≈ 88.6 µM) and an MIC (Staphylococcus aureus [7]) of 32 µg/mL (≈ 88.6 µM). For the same molecule, the MIC [8] was 8 µg/mL (≈ 22.1 µM), the MIC (Staphylococcus aureus [9]) was 16 µg/mL (≈ 44.3 µM) and the MIC (Staphylococcus aureus [10]) was 8 µg/mL (≈ 22.1 µM). It also gave an MIC (Staphylococcus aureus [11]) of 16 µg/mL (≈ 44.3 µM) and an MIC (Staphylococcus aureus [1]) of 8 µg/mL (≈ 22.1 µM).

O=C1C(O)=C(c2ccccc2)C2CCCN12 (stereo not drawn) was tested, and the MIC (Staphylococcus aureus [1]) was > 128 µg/mL and the MIC (Bacillus cereus) was 50 to 100 µg/mL (≈ 232 to 465 µM).

For O=C1C(O)=C(c2cccs2)C2CCCN12 (stereo not drawn), the MIC (Staphylococcus aureus [1]) was > 128 µg/mL.

O=C1C(O)=C(c2cccs2)C2CCCCN12 (stereo not drawn) was tested, and the MIC (Staphylococcus aureus [1]) was 16 µg/mL (≈ 68 µM).

CCC1C(c2ccc(C(F)(F)F)cc2)=C(O)C(=O)N1C1CCCCC1 (racemic) gave an MIC (Staphylococcus aureus [2]) of 8 µg/mL (≈ 22.6 µM), an MIC (Staphylococcus aureus [3]) of 32 µg/mL (≈ 90.6 µM) and an MIC (Staphylococcus aureus [4]) of 32 µg/mL (≈ 90.6 µM). For the same molecule, the MIC [5] was 2 µg/mL (≈ 5.66 µM), the MIC (Staphylococcus aureus [6]) was 32 µg/mL (≈ 90.6 µM) and the MIC (Staphylococcus aureus [7]) was 64 µg/mL (≈ 181 µM). For the same molecule, the MIC [8] was 16 µg/mL (≈ 45.3 µM), the MIC (Staphylococcus aureus [9]) was 8 µg/mL (≈ 22.6 µM) and the MIC (Staphylococcus aureus [10]) was 2 µg/mL (≈ 5.66 µM). The MIC (Staphylococcus aureus [11]) was 32 µg/mL (≈ 90.6 µM) and the MIC (Staphylococcus aureus [1]) was 8 µg/mL (≈ 22.6 µM).

For Cc1ccc(C2=C(O)C(=O)N3CCCCC23)cc1 (racemic), the MIC (Staphylococcus aureus [1]) was > 128 µg/mL.

COc1ccc(C2=C(O)C(=O)N3CCCC23)cc1 (stereo not drawn) was tested, and the MIC (Staphylococcus aureus [1]) was > 128 µg/mL.

In the case of O=C1C(O)=C(c2ccc(O)cc2)C2CCCN12 (stereo not drawn), the MIC (Staphylococcus aureus [1]) is reported as > 128 µg/mL and the MIC (Bacillus cereus) is reported as 50 to 100 µg/mL (≈ 216 to 432 µM).

COC1=C(c2ccc(C(F)(F)F)cc2)C2CCCCN2C1=O (stereo not drawn) was tested, and the MIC (Staphylococcus aureus [1]) was > 128 µg/mL.

For O=C1C(O)=C(c2ccc(C(F)(F)F)cc2)C2CCCCCN12 (racemic), the MIC (Staphylococcus aureus [1]) was 32 µg/mL (≈ 103 µM).

O=C1C(O)=C(c2ccc(Cl)cc2)C2CCCCN12 (racemic) was tested, and the MIC (Staphylococcus aureus [1]) was > 128 µg/mL.

In the case of CC1CCN2C(=O)C(O)=C(c3ccc(C(F)(F)F)cc3)C2C1 (racemic), the MIC (Staphylococcus aureus [1]) is reported as 128 µg/mL (≈ 411 µM).

O=C1C(O)=C(c2ccc(Cl)cc2)C2CCCN12 (racemic) was tested, and the MIC (Staphylococcus aureus [1]) was > 128 µg/mL.

For CCC1C(c2ccc(C(F)(F)F)cc2)=C(O)C(=O)N1Cc1ccc(C(F)(F)F)cc1 (racemic), the MIC (Staphylococcus aureus [1]) was 32 µg/mL (≈ 74.5 µM).

For O=C1C(O)=C(c2ccc(F)cc2)C2CCCN12 (racemic), the MIC (Staphylococcus aureus [1]) was > 128 µg/mL.

Work on Cc1ccc(C2=C(O)C(=O)N3CCCC23)cc1 (racemic) yielded an MIC (Staphylococcus aureus [1]) of 128 µg/mL (≈ 558 µM).

Work on CCCCCCN1C(=O)C(O)=C(c2ccc(C(F)(F)F)cc2)C1CCc1ccccc1 (racemic) yielded an MIC (Staphylococcus aureus [1]) of 64 µg/mL (≈ 148 µM).

With O=C1C(O)=C(c2ccccc2)C2CCCCN12 (stereo not drawn) the MIC (Staphylococcus aureus [1]) was > 128 µg/mL.

Work on CCC1C(c2ccc(C(F)(F)F)cc2)=C(O)C(=O)N1Cc1ccncc1 (racemic) yielded an MIC (Staphylococcus aureus [1]) of 64 µg/mL (≈ 177 µM).
